Results as given in ChEMBL document CHEMBL6120994, “Unravelling the potential of natural chelating agents in the control of Staphylococcus aureus and Pseudomonas aeruginosa biofilms” (Eur J Med Chem, 2025).
Calls of active or inactive are those of the source. No cut-off for these calls is given here.

Columns and labels:
Staphylococcus aureus [1] = assay: Inhibition of virulence production in pre-established 24 hr-old Staphylococcus aureus CECT 976 biofilms assessed as diameter of gelatinases halo at 10XMTC measured after 48 hrs (reference value: 10.8 to 11 mm); type: functional
Staphylococcus aureus [2] = assay: Inhibition of virulence production in Staphylococcus aureus CECT 976 biofilms assessed as diameter of lipases halo at 1/2XMTC measured after 48 hrs in presence of 1/8XMIC tobramycin (reference value: 12.5 to 12.8 mm); type: functional
Staphylococcus aureus [3] = assay: Antibiofilm activity against Staphylococcus aureus CECT 976 assessed as reduction in metabolic activity of biofilm cells at 500 to 1000 ug/ml by resazurin staining based fluorescence analysis; type: functional; conditions: dose 500-1000 µg/ml; at 500 to 1000 µg/mL
Staphylococcus aureus [4] = assay: Inhibition of virulence production in pre-established 24 hr-old Staphylococcus aureus CECT 976 biofilms assessed as diameter of lipases halo at 10XMTC measured after 48 hrs in presence of 1/2XMIC tobramycin (reference value: 11.5 to 12.3 mm); type: functional
Staphylococcus aureus [5] = assay: Inhibition of virulence production in Staphylococcus aureus CECT 976 biofilms assessed as diameter of siderophores halo at 1/2XMTC measured after 48 hrs in presence of 1/4XMIC tobramycin (reference value: 10.5 +/-0.6 mm); type: functional
Pseudomonas aeruginosa [6] = assay: Antibiotic adjuvant activity against Pseudomonas aeruginosa ATCC 10145 assessed as potentiation of ciprofloxacin-induced antibacterial activity by measuring ciprofloxacin MIC at 15.6 ug/ml measured after 24 hrs by checkerboard assay (reference value: […] ug/ml); type: functional; conditions: dose 15.6 µg/ml
Pseudomonas aeruginosa [7] = assay: Antibacterial activity against Pseudomonas aeruginosa ATCC 10145 assessed as inhibition of bacterial growth by measuring inhibition zone diameter at 100 ug/ml incubated for 24 hrs in presence of gentamicin by disc diffusion method (reference value: 8.25 +/-0.5 mm); type: functional; conditions: read-out: DIZ
Staphylococcus aureus [8] = assay: Antibiotic adjuvant activity against Staphylococcus aureus CECT 976 assessed as potentiation of tobamycin-induced antibacterial activity by measuring tobramycin MBC at 62.5 ug/ml measured after 24 hrs by checkerboard assay (reference value: 4 ug/ml); type: functional; conditions: dose 62.5 µg/ml
Pseudomonas aeruginosa [9] = assay: Antibiotic adjuvant activity against preestablished 24-hr old Pseudomonas aeruginosa ATCC 10145 assessed as potentiation of ciprofloxacin-induced antibiofilm activity by measuring reduction in metabolic activity of biofilm cells at 1000 ug/ml in presence of 1/8XMIC ciprofloxacin by resazurin staining based fluorescence analysis; type: functional, organism-based; conditions: dose 1000.0 µg/ml
Staphylococcus aureus [10] = assay: Antibiotic adjuvant activity against Staphylococcus aureus CECT 976 assessed as potentiation of tobramycin-induced antibiofilm activity by measuring reduction in metabolic activity of biofilm cells at 500 ug/ml in presence of tobramycin by resazurin staining based fluorescence analysis; type: functional, organism-based; conditions: dose 500.0 µg/ml
Staphylococcus aureus [11] = assay: Inhibition of virulence production in pre-established 24 hr-old Staphylococcus aureus CECT 976 biofilms assessed as diameter of protease halo at 1XMTC measured after 72 hrs (reference value: 12.3 to 13.3 mm); type: functional
Staphylococcus aureus [12] = assay: Inhibition of virulence production in Staphylococcus aureus CECT 976 biofilms assessed as diameter of lipases halo at 1/2XMTC measured after 48 hrs in presence of 1/2XMIC tobramycin (reference value: 12.5 to 13.5 mm); type: functional
Staphylococcus aureus [13] = assay: Inhibition of virulence production in Staphylococcus aureus CECT 976 biofilms assessed as diameter of gelatinases halo at 1/2XMTC measured after 48 hrs in presence of 1/2XMIC tobramycin (reference value: 10 to 10.8 mm); type: functional
[14] = Metal chelating activity at iron(III) in chrome azurol sulphonate solution incubated for 30 mins by spectrophotometric analysis; conditions: dose 6.25-1000 µg/ml
Staphylococcus aureus [15] = assay: Antibiofilm activity against preestablished 24 hr-old Staphylococcus aureus CECT 976 assessed as biomass removal at 1000 to 10000 ug/ml measured after 24 hrs by crystal violet staining method; type: functional; conditions: dose 1000-10000 µg/ml, at 1000 to 10000 µg/mL
Staphylococcus aureus [16] = assay: Inhibition of virulence production in pre-established 24 hr-old Staphylococcus aureus CECT 976 biofilms assessed as diameter of siderophores halo at 10XMTC measured after 48 hrs in presence of 1/4XMIC tobramycin (reference value: 11.5 +/-0.6 mm); type: functional
Staphylococcus aureus [17] = assay: Inhibition of virulence production in pre-established 24 hr-old Staphylococcus aureus CECT 976 biofilms assessed as diameter of gelatinases halo at 10XMTC measured after 48 hrs in presence of 1/2XMIC tobramycin (reference value: 9.3 to 9.5 mm); type: functional
Cell membrane [18] = assay: Disruption of membrane integrity in Staphylococcus aureus CECT 976 biofilm assessed as increase in PI uptake at 500 ug/ml measured after 24 hrs in presence of 1/8X to 1/2XMIC tobramycin by flow cytometry; type: subcellular; conditions: dose 500.0 µg/ml
Staphylococcus aureus [19] = assay: Inhibition of virulence production in Staphylococcus aureus CECT 976 biofilms assessed as diameter of siderophores halo at 1/2XMTC measured after 48 hrs in presence of 1/8XMIC tobramycin (reference value: 10.5 +/-0.6 mm); type: functional
Staphylococcus aureus [20] = assay: Inhibition of virulence production in Staphylococcus aureus CECT 976 biofilms assessed as diameter of siderophores halo at 1/2XMTC measured after 48 hrs (reference value: 12 mm); type: functional
Staphylococcus aureus [21] = assay: Inhibition of virulence production in pre-established 24 hr-old Staphylococcus aureus CECT 976 biofilms assessed as diameter of lipases halo at 10XMTC measured after 48 hrs in presence of 1/4XMIC tobramycin (reference value: 11.5 +/-0.6 mm); type: functional
Staphylococcus aureus [22] = assay: Inhibition of virulence production in pre-established 24 hr-old Staphylococcus aureus CECT 976 biofilms assessed as diameter of gelatinases halo at 10XMTC measured after 48 hrs in presence of 1/4XMIC tobramycin (reference value: 10 to 11.3 mm); type: functional
Staphylococcus aureus [23] = assay: Inhibition of virulence production in pre-established 24 hr-old Staphylococcus aureus CECT 976 biofilms assessed as diameter of lipases halo at 10XMTC measured after 48 hrs (reference value: 11.8 to 12 mm); type: functional
Staphylococcus aureus [24] = assay: Inhibition of virulence production in Staphylococcus aureus CECT 976 biofilms assessed as diameter of gelatinases halo at 1/2XMTC measured after 48 hrs (reference value: 10.8 to 11.5 mm); type: functional
Staphylococcus aureus [25] = assay: Inhibition of virulence production in Staphylococcus aureus CECT 976 biofilms assessed as diameter of lipases halo at 1/2XMTC measured after 48 hrs in presence of 1/4XMIC tobramycin (reference value: 12.3 to 13.5 mm); type: functional
Cell membrane [26] = assay: Disruption of membrane integrity in pre-established 24 hr-old Staphylococcus aureus CECT 976 biofilm at 10XMTC measured after 24 hrs by SYTO9/PI dye based epifluorescence microscopy; type: subcellular
HepG2 = assay: Induction of ROS production in human HepG2 cells assessed as DCF fluorescence at 90 to 1000 ug/ml measured after 24 hrs by DCFH-DA staining based fluorescence analysis; type: toxicity, cell-based; conditions: hepg2, 24 h, at 90 to 1000 µg/mL, dose 90-1000 µg/ml

Compound | Activity (Staphylococcus aureus [1]) [mm] | Activity (Staphylococcus aureus [2]) [mm] | inhibition (INH) (Staphylococcus aureus [3]) [%] | Activity (Staphylococcus aureus [4]) [mm] | Activity (Staphylococcus aureus [5]) [mm] | MIC (Pseudomonas aeruginosa [6]) [µg/mL] | zone of inhibition at 100 µg/mL (Pseudomonas aeruginosa [7]) [mm] | MBC (Staphylococcus aureus [8]) [µg/mL] | Activity (Pseudomonas aeruginosa [9]) | Activity (Staphylococcus aureus [10]) | Activity (Staphylococcus aureus [11]) [mm] | Activity (Staphylococcus aureus [12]) [mm] | Activity (Staphylococcus aureus [13]) [mm] | Activity [14] | inhibition (INH) (Staphylococcus aureus [15]) [%] | Activity (Staphylococcus aureus [16]) [mm] | Activity (Staphylococcus aureus [17]) [mm] | Activity (Cell membrane [18]) | Activity (Staphylococcus aureus [19]) [mm] | Activity (Staphylococcus aureus [20]) [mm] | further results
O=c1cc(CO)occ1O [KOJIC ACID] | 0 | 2.5 | 40 | 2 | 9.5 | 16 | 12 | 1 | inactive | inactive | 3.5 | 2.3 | 0 | Dose-dependent-effect | 15 | 10.3 | 0 | inactive | 9 | 10 | Activity (Staphylococcus aureus [21]): 2.5 mm; Activity (Staphylococcus aureus [22]): 0 mm; Activity (Staphylococcus aureus [23]): 2.5 mm; Activity (Staphylococcus aureus [24]): 0 mm; Activity (Staphylococcus aureus [25]): 2 mm; Activity (Cell membrane [26]): inactive; Activity (HepG2): ~ 80%
Cc1occc(=O)c1O [MALTOL] | 0 | 2 | 40 | 2.3 | 9.5 | 16 | 11.8 | 1 | inactive | inactive | 3.5 | 2 | 0 | Dose-dependent-effect | 15 | 10.3 | 0 | inactive | 10 | 10 | Activity (Staphylococcus aureus [21]): 2.3 mm; Activity (Staphylococcus aureus [22]): 0 mm; Activity (Staphylococcus aureus [23]): 2.5 mm; Activity (Staphylococcus aureus [24]): 0 mm; Activity (Staphylococcus aureus [25]): 2.3 mm; Activity (Cell membrane [26]): inactive; Activity (HepG2): ~ 116%
